From patent US20240110220A1, “DETECTING BETA-LACTAMASE ENZYME ACTIVITY” (COMMISSARIAT A L'ENERGIE ATOMIQUE ET AUX ENERGIES …, priority 2021, published 2024)

Tested on: bacterial colonies
Experiment: Validation of the rapid test strip on bacterial colonies sensitive or resistant to third-generation cephalosporins (Table 12)
Format: biochemical
Set-up: key: A signal on the TL is considered as “P”; An absence of signal on the TL is defined as “N”
Description: In order to validate the test strip on bacterial colonies for its clinical use, […].
In order to carry out these tests, all of the solutions below have been prepared in the buffer strip having, for composition: 0.1 M pH 8 Tris buffer/HCL+0.15 M NaCl+0.5% Tween 20+1% chaps+0.01% sodium azide. […] The tracer is in dried format on the CP. […] A CL was produced. It consists of anti-tracer antibodies. The migration is carried out in a plastic cassette.
A bacterial colony was sampled from an URI-4 agar with a 1 μl ose, then deposited in the previously prepared Eppendorf tube. The tube was vortexed for five seconds, then incubated for 30 minutes at ambient temperature. Once the incubation was finished, 100 μl was sampled and deposited on the test strip. The reading is carried out after 10 minutes migration. A signal on the TL is considered as “P”. An absence of signal on the TL is defined as “N”.

Structure (SMILES): CO/N=C(\C(=O)N[C@@H]1C(=O)N2C(C(=O)O)=C(COC(C)=O)CS[C@H]12)c1csc(N)n1 [non-hydrolysed cefotaxime, cefotaxime]
- results of the test (C. freundii, CMY-135 + MOX-9 + OXA-372 + OXA-10, isolate number 1, strains capable of hydrolysing cefotaxime): P
- results of the test (C. freundii, CMY-150 + LMB-1, isolate number 1, strains capable of hydrolysing cefotaxime): P
- results of the test (C. freundii, CTX-M + VIM + OXA-48, isolate number 1, strains capable of hydrolysing cefotaxime): P
- results of the test (C. freundii, CTX-M-1, isolate number 1, strains capable of hydrolysing cefotaxime): P
- results of the test (C. freundii, CTX-M-15 + TEM-1 + CMY-48 + OXA-48 like, isolate number 1, strains capable of hydrolysing cefotaxime): P
- results of the test (C. freundii, CTX-M-15, isolate number 1, strains capable of hydrolysing cefotaxime): P
- results of the test (C. freundii, N/A, isolate number 1, strains not capable of hydrolysing cefotaxime): N
- results of the test (C. freundii, SHV-12 + TEM-1 + OXA-48, isolate number 1, strains capable of hydrolysing cefotaxime): P
- results of the test (C. freundii, SHV-12, isolate number 1, strains capable of hydrolysing cefotaxime): P
- results of the test (C. freundii, TEM-1 + KPC-2, isolate number 1, strains capable of hydrolysing cefotaxime): P
- results of the test (C. freundii, TEM-1 + VIM-2 + OXA-9 + OXA-10, isolate number 1, strains capable of hydrolysing cefotaxime): P
- results of the test (C. freundii, TEM-1 + VIM-2, isolate number 1, strains capable of hydrolysing cefotaxime): P
- results of the test (C. freundii, TEM-3 + Overexpressed AmpC, isolate number 2, strains capable of hydrolysing cefotaxime): P
- results of the test (C. koserii, CTX-M-1, isolate number 1, strains capable of hydrolysing cefotaxime): P
- results of the test (C. koserii, TEM-1 + OXA-48, isolate number 1, strains capable of hydrolysing cefotaxime): P
- results of the test (E. asburiae, IMI-2, isolate number 2, strains not capable of hydrolysing cefotaxime): N
- results of the test (E. asburiae, IMI-17, isolate number 1, strains not capable of hydrolysing cefotaxime): N
- results of the test (E. cloacae, CTX-M-9, isolate number 1, strains capable of hydrolysing cefotaxime): P
- results of the test (E. cloacae, FRI-1, isolate number 1, strains capable of hydrolysing cefotaxime): P
- results of the test (E. cloacae, GES-6, isolate number 1, strains capable of hydrolysing cefotaxime): P
- results of the test (E. cloacae, GIM-1, isolate number 1, strains capable of hydrolysing cefotaxime): P
- results of the test (E. cloacae, IMI-1, isolate number 1, strains not capable of hydrolysing cefotaxime): N
- results of the test (E. cloacae, IMI-3 + Overexpressed AmpC, isolate number 1, strains capable of hydrolysing cefotaxime): P
- results of the test (E. cloacae, N/A, isolate number 2, strains not capable of hydrolysing cefotaxime): N
- results of the test (E. cloacae, Overexpressed AmpC, isolate number 7, strains capable of hydrolysing cefotaxime): P
- results of the test (E. cloacae, TEM-3, isolate number 1, strains capable of hydrolysing cefotaxime): P
- results of the test (E. cloacae, TMB-1, isolate number 1, strains capable of hydrolysing cefotaxime): P
- results of the test (E. coli, CTX-M + NDM-5 + OXA-181, isolate number 1, strains capable of hydrolysing cefotaxime): P
- results of the test (E. coli, CTX-M + SHV + NDM-1 + OXA-48, isolate number 1, strains capable of hydrolysing cefotaxime): P
- results of the test (E. coli, CTX-M-9 + TEM-1 + KPC-2, isolate number 1, strains capable of hydrolysing cefotaxime): P
- results of the test (E. coli, CTX-M-15 + CMY-2 + OXA-204 + OXA-1, isolate number 1, strains capable of hydrolysing cefotaxime): P
- results of the test (E. coli, CTX-M-15 + CMY-4 + OXA-204 + OXA-1, isolate number 1, strains capable of hydrolysing cefotaxime): P
- results of the test (E. coli, CTX-M-15 + CMY-4 + OXA-204, isolate number 1, strains capable of hydrolysing cefotaxime): P
- results of the test (E. coli, CTX-M-15 + CMY-6 + NDM-4, isolate number 1, strains capable of hydrolysing cefotaxime): P
- results of the test (E. coli, CTX-M-15 + NDM-6 + OXA-1, isolate number 1, strains capable of hydrolysing cefotaxime): P
- results of the test (E. coli, CTX-M-15 + OXA-232 + OXA-1, isolate number 1, strains capable of hydrolysing cefotaxime): P
- results of the test (E. coli, CTX-M-15 + TEM-1 + CMY + NDM-1, isolate number 1, strains capable of hydrolysing cefotaxime): P
- results of the test (E. coli, CTX-M-93, isolate number 1, strains not capable of hydrolysing cefotaxime): N
- results of the test (E. coli, TEM-1 + CMY-16 + NDM-1 + OXA-1 + OXA-10, isolate number 1, strains capable of hydrolysing cefotaxime): P
- results of the test (E. coli, TEM-1 + NDM-9 + OXA-1, isolate number 1, strains capable of hydrolysing cefotaxime): P
- results of the test (K. oxytoca, CTX-M-15, isolate number 2, strains capable of hydrolysing cefotaxime): P
- results of the test (K. oxytoca, DHA-1 + SHV-75, isolate number 1, strains capable of hydrolysing cefotaxime): P
- results of the test (K. pneumoniae, CMY-4 + OXA-204, isolate number 1, strains capable of hydrolysing cefotaxime): P
- results of the test (K. pneumoniae, CTX-M + KPC-3, isolate number 1, strains capable of hydrolysing cefotaxime): P
- results of the test (K. pneumoniae, CTX-M + MCR-1, isolate number 2, strains capable of hydrolysing cefotaxime): P
- results of the test (K. pneumoniae, CTX-M + NDM-1 + OXA-232, isolate number 1, strains capable of hydrolysing cefotaxime): P
- results of the test (K. pneumoniae, CTX-M + NDM-4 + KPC-2, isolate number 1, strains capable of hydrolysing cefotaxime): P
- results of the test (K. pneumoniae, CTX-M + NDM-5 + OXA-232, isolate number 1, strains capable of hydrolysing cefotaxime): P
- results of the test (K. pneumoniae, CTX-M + OXA-370, isolate number 1, strains capable of hydrolysing cefotaxime): P
- results of the test (K. pneumoniae, CTX-M + OXA-519, isolate number 1, strains capable of hydrolysing cefotaxime): P
- results of the test (K. pneumoniae, CTX-M + SHV-11 + TEM-1 + OXA-162, isolate number 1, strains capable of hydrolysing cefotaxime): P
- results of the test (K. pneumoniae, CTX-M + SHV-12 + GES-5, isolate number 1, strains capable of hydrolysing cefotaxime): P
- results of the test (K. pneumoniae, CTX-M-2, isolate number 1, strains capable of hydrolysing cefotaxime): P
- results of the test (K. pneumoniae, CTX-M-3 + SHV-1 + TEM-1 + VIM-19, isolate number 1, strains capable of hydrolysing cefotaxime): P
- results of the test (K. pneumoniae, CTX-M-3, isolate number 1, strains capable of hydrolysing cefotaxime): P
- results of the test (K. pneumoniae, CTX-M-8, isolate number 1, strains capable of hydrolysing cefotaxime): P
- results of the test (K. pneumoniae, CTX-M-14 + SHV-11 + TEM-1, isolate number 1, strains capable of hydrolysing cefotaxime): P
- results of the test (K. pneumoniae, CTX-M-15 + SHV-1 + TEM-1 + OXA-232 + OXA-1, isolate number 1, strains capable of hydrolysing cefotaxime): P
- results of the test (K. pneumoniae, CTX-M-15 + SHV-1 + TEM-1, isolate number 1, strains capable of hydrolysing cefotaxime): P
- results of the test (K. pneumoniae, CTX-M-15 + SHV-1, isolate number 1, strains capable of hydrolysing cefotaxime): P
- results of the test (K. pneumoniae, CTX-M-15 + SHV-11 + TEM-1 + NDM-1 + OXA-1 + OXA-181, isolate number 1, strains capable of hydrolysing cefotaxime): P
- results of the test (K. pneumoniae, CTX-M-15 + SHV-11 + TEM-1 + NDM-1 + OXA-1, isolate number 1, strains capable of hydrolysing cefotaxime): P
- results of the test (K. pneumoniae, CTX-M-15 + SHV-11, isolate number 1, strains capable of hydrolysing cefotaxime): P
- results of the test (K. pneumoniae, CTX-M-15 + SHV-27 + TEM-1 + NDM-1 + OXA-1 + OXA-181, isolate number 1, strains capable of hydrolysing cefotaxime): P
- results of the test (K. pneumoniae, CTX-M-15 + SHV-28 + TEM-1 + CMY + OXA-204, isolate number 1, strains capable of hydrolysing cefotaxime): P
- results of the test (K. pneumoniae, CTX-M-15 + SHV-99 + TEM-1, isolate number 1, strains capable of hydrolysing cefotaxime): P
- results of the test (K. pneumoniae, CTX-M-15 + TEM-1 + OXA-48, isolate number 1, strains capable of hydrolysing cefotaxime): P
- results of the test (K. pneumoniae, CTX-M-15 + TEM, isolate number 1, strains capable of hydrolysing cefotaxime): P
- results of the test (K. pneumoniae, CTX-M-15, isolate number 1, strains capable of hydrolysing cefotaxime): P
- results of the test (K. pneumoniae, CTX-M-18, isolate number 1, strains capable of hydrolysing cefotaxime): P
- results of the test (K. pneumoniae, CTX-M-19, isolate number 1, strains capable of hydrolysing cefotaxime): P
- results of the test (K. pneumoniae, DHA-2, isolate number 1, strains capable of hydrolysing cefotaxime): P
- results of the test (K. pneumoniae, GES-1, isolate number 1, strains capable of hydrolysing cefotaxime): P
- results of the test (K. pneumoniae, IMP-8, isolate number 1, strains capable of hydrolysing cefotaxime): P
- results of the test (K. pneumoniae, KPC + VIM, isolate number 1, strains capable of hydrolysing cefotaxime): P
- results of the test (K. pneumoniae, KPC-3, isolate number 1, strains capable of hydrolysing cefotaxime): P
- results of the test (K. pneumoniae, KPC-4 + NDM-7, isolate number 1, strains capable of hydrolysing cefotaxime): P
- results of the test (K. pneumoniae, MCR-1 + SHV-2 + SHV-106 + mgrB truncated in orf by IS5, isolate number 1, strains capable of hydrolysing cefotaxime): P
- results of the test (K. pneumoniae, NDM-1, isolate number 1, strains capable of hydrolysing cefotaxime): P
- results of the test (K. pneumoniae, NDM-5 + VIM-1 + OXA-181, isolate number 1, strains capable of hydrolysing cefotaxime): P
- results of the test (K. pneumoniae, OXA-48, isolate number 1, strains capable of hydrolysing cefotaxime): P
- results of the test (K. pneumoniae, OXA-163, isolate number 2, strains capable of hydrolysing cefotaxime): P
- results of the test (K. pneumoniae, OXA-517, isolate number 1, strains capable of hydrolysing cefotaxime): P
- results of the test (K. pneumoniae, SHV-2a, isolate number 1, strains capable of hydrolysing cefotaxime): P
- results of the test (K. pneumoniae, SHV-5 + IMP-1, isolate number 1, strains capable of hydrolysing cefotaxime): P
- results of the test (K. pneumoniae, SHV-5 + VIM-1, isolate number 2, strains capable of hydrolysing cefotaxime): P
- results of the test (K. pneumoniae, SHV-11 + OXA-48, isolate number 1, strains capable of hydrolysing cefotaxime): P
- results of the test (K. pneumoniae, SHV-11 + TEM-1 + KPC-3 + OXA-9, isolate number 1, strains capable of hydrolysing cefotaxime): P
- results of the test (K. pneumoniae, SHV-11, isolate number 1, strains capable of hydrolysing cefotaxime): P
- results of the test (K. pneumoniae, SHV-12 + IMP-8, isolate number 1, strains capable of hydrolysing cefotaxime): P
- results of the test (K. pneumoniae, SHV-36 + TEM-1, isolate number 1, strains capable of hydrolysing cefotaxime): P
- results of the test (K. pneumoniae, SHV-38, isolate number 1, strains capable of hydrolysing cefotaxime): P
- results of the test (K. pneumoniae, TEM-3, isolate number 1, strains capable of hydrolysing cefotaxime): P
- results of the test (P. mirabilis, ACC-1, isolate number 1, strains capable of hydrolysing cefotaxime): P
- results of the test (P. mirabilis, CTX-M-71, isolate number 1, strains capable of hydrolysing cefotaxime): P
- results of the test (P. mirabilis, N/A, isolate number 1, strains not capable of hydrolysing cefotaxime): N
- results of the test (P. mirabilis, OXA-23, isolate number 1, strains not capable of hydrolysing cefotaxime): N
- results of the test (P. mirabilis, OXA-58, isolate number 1, strains not capable of hydrolysing cefotaxime): N
- results of the test (P. mirabilis, TEM-52, isolate number 1, strains capable of hydrolysing cefotaxime): P
- results of the test (Salmonella spp., N/A, isolate number 1, strains not capable of hydrolysing cefotaxime): N
